Measurements as given in patent US8043827B2, “Single molecule-format real-time bioluminescence imaging probe” (National Institute of Advanced Industrial Science and …, priority 2007, dated 2011).
Where two headings read alike, the source gives them in different places.

What was measured:
Assay type in all cases: cell-based
[1] = system: ATP receptor which is an endogenous membrane receptor of COS-7 cells; experiment: ATP concentration-dependent luminescence change in COS-7 cells carrying pSica-5
Description: For example, an ATP receptor which is an endogenous membrane receptor of COS-7 cells, is stimulated by 100 mM ATP, to thereby increase the concentration of Ca^2+. CaM in the probe responds to the elevated Ca^2+ Level, and as a result, the luminescence intensity is reduced. This phenomenon depends on the ATP concentration;
pSica-5 was transfected into COS-7 cells which have been cultured on a 24-well plate, using a transfection reagent (TransIT-LT1 (Mirus)). Then, the cells were cultured for 16 hours, and then the culture medium was exchanged with 200 μL of a mixed solution of a HBSS buffer (containing 1.3 mM Ca^2+) and the substrate. The values of luminescence change obtained thereafter were monitored by a luminescent plate reader (FIG. 5). After about 5 minutes, ATP was added at different concentrations, and changes in the luminescence values obtained thereafter were monitored. […] Meanwhile, no detectable change was recognized in the luminescence values for the buffer solution itself (phosphate buffer saline; PBS).

[2] = system: ATP receptors present on the cell membrane of MCF-7 cells; experiment: Intracellular Ca^2+ level increased by ATP stimulation, MCF-7 cells transfected with pSica-5; settings: 1 mM ATP; host cell MCF-7 transfected with pSica-5
Description: (§1) pSica-5 was transfected into COS-7 cells or HeLa cells which have been cultured on a 24-well plate, using a transfection reagent (TransIT-LT1 (Mirus)). Then, the cells were cultured for 16 hours, and then the cell culture medium was exchanged with 200 μL of a PBS buffer solution supplemented with coeleterazine, which is the specific substrate, and 2 μM ionomycin. The values of luminescence change obtained thereafter were monitored by a luminescent plate reader (Mithras LB940; Berthold) (FIG. 7(A)). Four minutes after stabilization of the background luminescence, Ca^2+ was added to the cells on the wells at concentrations ranging from 10^−3.5 M to 10^−5.5 M. Thereafter, the changes in the luminescence values were immediately monitored by the above-mentioned luminescence plate reader. Changes in the luminescence values, which were dependent on the concentration of added Ca^2+, were monitored. Based on the values of luminescence fluctuations in this Ca^2+ concentration range, three kinds of calibration curves were produced with respect to the Ca^2+ concentration in the cultured cells. Variances in the luminescence intensity induced by the ATP concentration in COS-7, MCF-7 and HeLa cells, which had been respectively transfected with pSica-5, were measured (FIG. 7(B)). […]

[3] = system: ATP receptors present on the cell membrane of COS-7 cells; experiment: Intracellular Ca^2+ level increased by ATP stimulation, COS-7 cells transfected with pSica-5; settings: 1 mM ATP; host cell COS-7 transfected with pSica-5
Description: as §1

[4] = target: T1, calmodulin (CaM) (Xenopus laevis, UniProt P0DP33); experiment: Ca^2+ concentration-dependent luminescence intensity in living cells transfected with pSica-5; settings: for EC50: 2 μM ionomycin, PBS, read-out: 50% effective concentration (EC50) based on changes in luminescence intensities
T1 construct: (CaM; 1-150 AA; GenBank/NM001087395); expressed in transfected cells; host or cells: COS-7 or HeLa cells, pSica-5 in pcDNA3.1(+)
Description: PCR amplification was carried out to introduce KpnI and BamHI, which are restriction enzyme sites, into the two termini of a cDNA encoding calmodulin, which is a Xenopus laevis (African clawed frog)-derived Ca^2+ recognition protein (CaM; 1-150 AA; GenBank/NM001087395). On the other hand, as an optimal luminescent enzyme which can be linked to the CaM as a single-molecule-format probe, Gaussia princeps-derived luciferase (GLuc; 1-189 AA; GenBank/AY015993) was used. Five fragment pairs were generated by fragmentizing five sites of the cDNA of GLuc by PCR reaction, and were used in the examination of the optimal partition sites for GLuc (FIG. 3), which will be discussed in Example 2.
pSica-5 was transfected into COS-7 cells or HeLa cells which have been cultured on a 24-well plate, using a transfection reagent (TransIT-LT1 (Mirus)). Then, the cells were cultured for 16 hours, and then the cell culture medium was exchanged with 200 μL of a PBS buffer solution supplemented with coeleterazine, which is the specific substrate, and 2 μM ionomycin. The values of luminescence change obtained thereafter were monitored by a luminescent plate reader (Mithras LB940; Berthold) (FIG. 7(A)). Four minutes after stabilization of the background luminescence, Ca^2+ was added to the cells on the wells at concentrations ranging from 10^−3.5 M to 10^−5.5 M. Thereafter, the changes in the luminescence values were immediately monitored by the above-mentioned luminescence plate reader. Changes in the luminescence values, which were dependent on the concentration of added Ca^2+, were monitored. Based on the values of luminescence fluctuations in this Ca^2+ concentration range, three kinds of calibration curves were produced with respect to the Ca^2+ concentration in the cultured cells.

[5] = target: T2, GR LBD (human glucocorticoid receptor) (Homo sapiens, UniProt P04150); experiment: Ligand sensitivity of living cells transfected with pSimgr; settings: steroid hormone sensitivity (FIG. 9(C))
T2 construct: expressed in transfected cells
T2 sequence (P04150 524-758 limits assumed): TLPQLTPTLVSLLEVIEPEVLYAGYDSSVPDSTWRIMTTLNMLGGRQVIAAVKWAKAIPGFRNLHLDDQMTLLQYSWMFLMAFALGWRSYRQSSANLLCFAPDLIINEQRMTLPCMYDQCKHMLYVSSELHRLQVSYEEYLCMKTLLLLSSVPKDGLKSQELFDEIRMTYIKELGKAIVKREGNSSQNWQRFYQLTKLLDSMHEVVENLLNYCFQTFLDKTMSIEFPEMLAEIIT
Text: These plasmids were designated as pSimar and pSimgr, respectively.

Nc1ncnc2c1ncn2[C@@H]1O[C@H](COP(=O)(O)OP(=O)(O)OP(=O)(O)O)[C@@H](O)[C@H]1O [ATP]
changes in the luminescence values ([1]; COS-7 cells with pSica-5, 1 mM, 100 μM and 10 μM ATP, HBSS buffer containing 1.3 mM Ca^2+): stimulant dose-dependent changes
luminescence intensity ([1]; COS-7 cells, probe with GLuc dissected at site #5, 100 mM ATP (FIG. 5 legend)): reduced
Measured average of Ca^2+ concentrations (ave) [2]: 13 µM
Measured average of Ca^2+ concentrations (ave) [3]: 37.4 µM

[Ca+2] [Ca^2+]
EC50 ([4]; COS-7 cells transfected with pSica-5): 25 µM
EC50 ([4]; HeLa cells transfected with pSica-5): 50 µM
dissociation coefficient (Kd) between CaM and Ca^2+ ([4]; HeLa cells, from the luminescence values): 0.63×10^−17 M^4

C[C@]12CCC(=O)C=C1CC[C@@H]1[C@@H]2[C@@H](O)C[C@@]2(C)[C@H]1CC[C@]2(O)C(=O)CO [cortisol]
sensitivity of cells transfected with pSimgr [5]: strong sensitivity
